Laboratory results as given in patent publication US6570006B1, “Bacterial gene and method of treating a gram negative bacterial infection” (priority 1998, dated 2003).
Converted amounts (≈) assume the structure as drawn. “Also recorded” adds a separate entry of the source. Read-outs that look alike come from different tables or passages of the source.

What was measured:
[1] = tested on: CWG296 (waaP) + pWQ909; experiment: SDS and novobiocin sensitivity testing (MIC), complemented waaP mutant; assay type: cell-based, Escherichia coli; details: for resistance after introduction of multicopy waaP (in words): CWG296 with plasmid pWQ909
Description: (§1) Bacterial Strains and Growth Conditions—E. coli F470 is an R-LPS derivative of an O8:K27 strain (Schmidt, G. et al, 1969), and serves as the prototype for R1 core OS studies. Derivatives of F470 used in this study include CWG296 (F470 with a waaP::aacC1 insertion), CWG297 (F470 with a waaQ::aacC1 insertion), and CWG312 (F470 with a waaY::aacC1 insertion). Bacteria were grown in Luria-Bertani (LB) broth at 37° C. Growth media were supplemented with ampicillin (100 μg/mL), gentamicin (15 μg/mL), or chloramphenicol (30 μg/mL) when necessary.
Cloning and Expression of waaP for Complementation—Oligonucleotide primers for the amplification of waaP from the F470 chromosome were designed to introduce appropriate restriction sites for cloning. The forward primer (5′-TGTGGATccAAATAGTGGGCACTCA-3′)(SEQ. I.D. No. 7) introduced a BamHI site (underlined) 32 base pairs downstream of the waaP stop codon, and the complementary reverse primer (5′-GGGTGGTCcatATGGTTGAACTTAA-3′)(SEQ. I.D. No. 8) introduced an NdeI site (underlined) overlapping the waaP start codon (bases shown in lower case indicate mismatches between the primer and chromosomal sequences). The coding region for waaP alone was subsequently isolated as a BamHI-NdeI fragment, and cloned behind the arabinose-inducible PBAD promoter of the expression vector pBAD18, to generate plasmid pWQ909. L-arabinose was used at a final concentration of 0.002% to induce expression of WaaP from plasmid pWQ909.
(§2) Sodium dodecyl sulfate (SDS) and Novobiocin Sensitivity Testing—Two-fold serial dilutions of SDS (200→0.1 mg/mL) and novobiocin (200→1.6 μg/mL) were made in 5 mL volumes of LB. Each series of tubes was point inoculated from an overnight culture of the strain to be tested, and then incubated with shaking at 37° C. Growth was scored as positive if after 8 hours the culture was visibly turbid (i.e. A600>0.2).
Strain CWG296 was derived by insertion of the aacC1 gene into the unique NruI site in the waaP coding region of F470 (FIG. 2B). […]

[2] = tested on: E. coli F470 (parent); experiment: SDS and novobiocin sensitivity testing (MIC), parent strain; assay type: cell-based; details: Escherichia coli, LB, 37° C., growth scored after 8 hours, read-out: Minimum inhibitory concentration (MIC) novobiocin
Description: as §1, §2

[3] = tested on: CWG297 (F470 with a waaQ::aacC1 insertion); experiment: SDS and novobiocin sensitivity testing (MIC), waaQ mutant; assay type: cell-based, Escherichia coli; details: for MIC / sensitivity compared with F470 (in words): strain CWG297 (waaQ) versus F470 parent
Description: as §1, §2
Strain CWG297 was derived by insertion of the aacC1 gene into the unique NruI site in the waaQ coding region of F470 (FIG. 2B).

[4] = tested on: CWG296 (F470 with a waaP::aacC1 insertion); experiment: SDS and novobiocin sensitivity testing (MIC), waaP mutant; assay type: cell-based, Escherichia coli; details: for MIC: Escherichia coli, LB, 37° C., 8 hours; for MIC / sensitivity of the mutant (in words): strain CWG296 (waaP); for increase in the susceptibility: strain CWG296 (waaP) versus F470 parent
Description: as §1, §2
Strain CWG296 was derived by insertion of the aacC1 gene into the unique NruI site in the waaP coding region of F470 (FIG. 2B). The resulting mutant was hypersensitive to novobiocin and SDS (Table II), as expected based on results from previous studies (Helander, I. M. et al., 1989; Parker, C. T. et al., 1992).

[5] = tested on: CWG312 (F470 with a waaY::aacC1 insertion); experiment: SDS and novobiocin sensitivity testing (MIC), waaY mutant; assay type: cell-based, Escherichia coli; details: for MIC / sensitivity compared with F470 (in words): strain CWG312 (waaY) versus F470 parent
Description: as §1, §2
To test this possibility, strain CWG312 was derived by insertion of the aacC1 gene into the unique SnaBI site in the waaY coding region of F470 (FIG. 2B). The LPS from the resulting mutant migrated similarly to that of the F470 parent in sodium dodexyl sulphate-polyacrylamine gel electrophoresis (SDS-PAGE) (data not shown), precluding any significant effect of the mutation on core OS extension.

[6] = Escherichia coli, 8 h, read-out: Minimum inhibitory concentration (MIC) novobiocin

| Compound | resistance after introduction of multicopy waaP (in words) [1] | MIC ([1]; Escherichia coli, strain CWG296 (waaP) + pWQ909, LB, 37° C., 8 hours, read-out: Minimum inhibitory concentration (MIC) novobiocin) [µg/mL] | MIC [2] [µg/mL] | MIC [3, 6] [µg/mL] | MIC / sensitivity compared with F470 (in words) [3] | MIC ([4]; read-out: Minimum inhibitory concentration (MIC) novobiocin) [µg/mL] | sensitivity of the mutant (in words) [4] | increase in the susceptibility [4] [fold] | MIC [5, 6] [µg/mL] | MIC / sensitivity compared with F470 (in words) [5] | MIC / sensitivity compared with F470 (in words) ([3]; sulfate) | MIC ([4]; read-out: Minimum inhibitory concentration (MIC) SDS) [µg/mL] | MIC / sensitivity compared with F470 (in words) ([5]; sulfate) |
| --- | --- | --- | --- | --- | --- | --- | --- | --- | --- | --- | --- | --- | --- |
| CO[C@@H]1[C@@H](OC(N)=O)[C@@H](O)[C@H](Oc2ccc3c(O)c(NC(=O)c4ccc(O)c(CC=C(C)C)c4)c(=O)oc3c2C)OC1(C)C [novobiocin] | restored wild-type levels of resistance | 100 | 200 (≈ 326 µM) | 100 (≈ 163 µM) | slightly less than for F470; also recorded: minor increase in the sensitivity | 6.3 (≈ 10.3 µM) | hypersensitive | 32 | 100 (≈ 163 µM) | slightly less than for F470; also recorded: minor increase in the sensitivity | – | – | – |
| CCCCCCCCCCCCOS(=O)(=O)[O-].[Na+] [SDS, Sodium dodecyl sulfate] | restored wild-type levels of resistance | – | – | – | – | – | hypersensitive | > 1000 | – | – | slightly less than for F470; also recorded: minor increase in the sensitivity | 100 | slightly less than for F470; also recorded: minor increase in the sensitivity |
